Where “and” joins values, the source holds several entries; their conditions need not be identical. Identical values can stand only once. Like-named read-outs stand apart in the source and are kept apart here.

One may read the Kd as the constant that tells how readily two partners part at equilibrium.

Series [1] has as its system α2 adrenoceptors. On the set-up: method as in Jakobsen and colleagues[14]. The settings on record: porcine brain; low dose 0.15 mg/kg vs 0.7 mg/kg; ref Jakobsen and colleagues[14]; cited from earlier work.
On the set-up of series [2]: method as in Jakobsen et al.[14]. Conditions: pigs; challenge, compared with yohimbine; ref Jakobsen et al.[14]; cited from earlier work.
The subject of series [3] is [^11C]mirtazepin binding in porcine brain. On the set-up: method as in Smith et al.[34]. Conditions: ref Smith et al.[34], cited from earlier work.
The subject of the next series is α2 adrenoceptor subtypes. On the set-up: method as in PMID 7908054. Conditions: cited from earlier work.
The test system of series [4] is α2 adrenoceptors. Put plainly: Eadie-Hofstee Plot of PET binding potentials (receptor density Bmax and KD in vivo). On the set-up: species or system rat. The text has this:
The values of BPND enabled us to determine the α2 adrenoceptor density in vivo. As presented in Fig. 4A, we estimated values of receptor density, Bmax, and receptor affinity (1/KD) by means of Eadie-Hofstee plots. We calculated the bound quantity according to eq. 2, based on the information of the BPND and specific activity. We found the greatest receptor densities in thalamus, caudate putamen, and cortical areas, with the lowest densities in cerebellum and olfactory bulb as presented in Fig. 4B. The regional receptor densities are listed in detail in Table 2 and specific activity in Table 3.
We derived the present method from well-known principles of kinetics. We identified the following six steps to the determination of binding parameters of radioligands that achieve receptor occupancy. […] The variable B is the bound quantity of the ligand, and BPND is the binding potential of the radioligand at the specific degree of occupancy. To solve the equation of the Eadie-Hofstee plot for the two parameters, it is necessary to know the bound quantities of the ligand and the binding potentials in at least two conditions of different occupancy. The bound quantity is related to the binding potential by the relationship,2 B=M(BPND/1+BPND), where M is the total mass of the ligand per unit volume of brain tissue, calculated from the known specific activity of the radioligand.
The sixth and final step was the graphical solution to the Eadie-Hofstee Plot of eq. (1) (Eadie 1952, Hofstee 1952), where B is the bound quantity and BPND is the binding potential of ligands. We calculated the bound quantity from the relationship described by eq. 2.

The target of series [5] is α2 adrenoceptor. Conditions: parieto-occipital cortex, pH 7.5, 25.0 °C, mg^2+ 1 mM, blocking of NS adrenaline 10 μM, cited from earlier work.
For a further series, the system named is plasma proteins. Conditions: in the circulation; cited from earlier work.
Series [6] relates to α2 adrenoceptors. Conditions: cited from earlier work.
Series [7] deals with α2 adrenoceptors. As to the kind of experiment: PET of [^11C]yohimbine binding in rat brain at baseline and at challenge with unlabeled yohimbine. The settings on record: for Volumes of Distribution, VT, BASE: baseline; for Volumes of Distribution, VT, BASE / Volumes of Distribution, VT, COLD: individual rats 1-5; for Volumes of Distribution, VT, COLD: challenge with unlabeled yohimbine 0.3 mg/kg i.v.

In series [8] the target is α2 adrenoceptor. On the set-up: method as in Rout et al.[32]. Conditions: cortex, pH 7.0, 25.0 °C, blocking of NS noradrenaline 100 μM, ref Rout et al.[32], cited from earlier work.
The target in series [9] is α2 adrenoceptor. Conditions: cerebral cortex, pH 7.4, 25.0 °C, mg^2+ 0, blocking of NS phentolamine 10 μM, cited from earlier work.

Consider `COC1(C2=NCCN2)COc2ccccc2O1` (stereo not shown) [RX821002], for which, in the series on α2 adrenoceptors [1], the “decline of VT of [^11C]yohimbine” value is given as “greater decline of the value of VT than the higher dose of 0.7 mg/kg”. In [2], the “effect on CBF” value was “opposite effect”. The “reduction of [^11C]mirtazepin binding” value in series [3] (0.1 mg/kg) is given as 35%; in series [3] (1 mg/kg), “failed to inhibit the binding further”. In addition, the “affinity to α2 adrenoceptor subtypes” value in the series with α2 adrenoceptor subtypes is “higher affinity to α2A and α2C than to α2B”.
On to `COC(=O)[C@@H]1[C@H]2C[C@H]3c4[nH]c5ccccc5c4CCN3C[C@@H]2CC[C@@H]1O` [[^11C]yohimbine], for which the Kd with α2 adrenoceptors [4] (CEREB cerebellum, in vivo PET, read-out: KD mean ± S.E.M.) came out at […]; in the series on α2 adrenoceptors [4] (CP caudate putamen, in vivo PET, read-out: KD mean ± S.E.M.), […]; with α2 adrenoceptors [4] (HIPP hippocampus, in vivo PET, read-out: KD mean ± S.E.M.), […]; in the series on α2 adrenoceptors [4] (HYPP hypothalamus, in vivo PET, read-out: KD mean ± S.E.M.), […]; in the series on α2 adrenoceptors [4] (MC motor cortex, in vivo PET, read-out: KD mean ± S.E.M.), […]; with α2 adrenoceptors [4] (OLF olfactory bulb, in vivo PET, read-out: KD mean ± S.E.M.) it was […]. Further, the Kd with α2 adrenoceptors [4] (PFC prefrontal cortex, in vivo PET, read-out: KD mean ± S.E.M.) is […]; in the series with α2 adrenoceptors [4] (SSC somatosensory cortex, in vivo PET, read-out: KD mean ± S.E.M.) it was […]; in the series with α2 adrenoceptors [4] (THAL thalamus, in vivo PET, read-out: KD mean ± S.E.M.), […]; with α2 adrenoceptors [4] (all examined regions, Fig. 4B right, read-out: KD), […]; in the series with α2 adrenoceptors [4] (prefrontal cortex, in vivo, physiological condition, blocking of NS mathematical, 0.3 mg/kg YOH, read-out: KD) it was […].
`COC1(C2=NCCN2)COc2ccccc2O1` (stereo not shown) [[^3H]RX821002]: the Kd on α2 adrenoceptor [5] (ref Ribas et al.[7]) is 0.57 nM; on α2 adrenoceptor [5] (ref Ribas et al.[68]), 0.5 nM.
Take `[11CH3]OC(=O)[C@@H]1[C@H]2C[C@H]3c4[nH]c5ccccc5c4CCN3C[C@@H]2CC[C@@H]1O` [[^11C]yohimbine]: in the series with plasma proteins, the “fraction bound to plasma proteins” value is 82%. The “radioactive metabolites in plasma” value in the series with α2 adrenoceptors [6] (data from two rats) is “no radioactive metabolites”. Further, the “Volumes of Distribution, VT, BASE” value is […] in the series with α2 adrenoceptors [7] (CEREB cerebellum); […] in the series with α2 adrenoceptors [7] (CP caudate putamen); […] with α2 adrenoceptors [7] (HIPP hippocampus); […] with α2 adrenoceptors [7] (HYP hypothalamus); […] in the series on α2 adrenoceptors [7] (MC motor cortex); […] in the series with α2 adrenoceptors [7] (OLF olfactory bulb). For the same compound, the “Volumes of Distribution, VT, BASE” value in the series on α2 adrenoceptors [7] (PFC prefrontal cortex) was […]; in the series with α2 adrenoceptors [7] (SSC somatosensory cortex) it was […]; in the series on α2 adrenoceptors [7] (THAL thalamus), […]. For the same compound, the “Volumes of Distribution, VT, COLD” value with α2 adrenoceptors [7] (CEREB cerebellum) is […]; in the series with α2 adrenoceptors [7] (CP caudate putamen), […]; in the series on α2 adrenoceptors [7] (HIPP hippocampus), […]; in the series on α2 adrenoceptors [7] (HYP hypothalamus) it was […]; in the series on α2 adrenoceptors [7] (MC motor cortex) it was […]; in the series with α2 adrenoceptors [7] (OLF olfactory bulb), […]. The “Volumes of Distribution, VT, COLD” value with α2 adrenoceptors [7] (PFC prefrontal cortex) is […]; in the series with α2 adrenoceptors [7] (SSC somatosensory cortex), […]; with α2 adrenoceptors [7] (THAL thalamus), […]. Also, the “time of peak uptake post-injection” value in the series on α2 adrenoceptors [7] (cerebellum) is listed as […]. This compound showed a rate of escape in the series with α2 adrenoceptors [7] (corresponding to K1 for a vascular volume of 0.02 ml/cm^3) of […]. In addition, the “time of peak accumulation post-injection” value with α2 adrenoceptors [7] (other brain regions) is […].
Take `CC(N)Cc1ccccc1` (stereo not shown) [amphetamine]: the “change of VND(b) and fP of [^11C]yohimbine” value with α2 adrenoceptors [6] (amphetamine 2 mg/kg challenge) is recorded as “did not change”.
For `COC(=O)[C@@H]1[C@H]2C[C@H]3c4[nH]c5ccccc5c4CCN3C[C@@H]2CC[C@@H]1O` [[^3H]yohimbine], the Kd on α2 adrenoceptor [8] (mg^2+ 0 mM) is […]; on α2 adrenoceptor [8] (mg^2+ 10 mM), […]; at α2 adrenoceptor [9] (ref Brown et al.[44]) it was 5.2 nM; on α2 adrenoceptor [9] (ref Brown et al.[45]) it was 5.3 nM.

(Values after paper PMC5700124 (Scientific Reports, 2017).)
